Source: patent US20060111305A1, “Metabolites of certain [1,4]diazepino[6,7,1-ij]quinoline derivatives and methods of preparation and use thereof” (Wyeth, priority 2004, published 2006)
Read-outs that look alike come from different tables or passages of the source.

Legend:
[1] = Dog plasma metabolite profiles after single 15 mg/kg oral capsule of [14C]DCDQ; type: in vivo, beagle dogs; conditions: for concentration at 2 h / concentration at 4 h / concentration at 8 h / concentration at 24 h / concentration at 48 h: male, beagle, dog, plasma, oral, 15 mg/kg, read-out: Estimated plasma concentration in dogs
Description: (§1) For plasma profiles, a TopCount NXT radiometric microplate reader (Perkin Elmer) was used to analyze the radioactivity in collected HPLC fractions. The limit of detection by TopCount was about 1 ng equivalent/mL. A Flo-One β Model A525 radioactivity detector (Perkin Elmer) with a 250 μL LQTR flow cell was used to acquire data for urine and fecal samples. The flow rate of Ultima Flow M scintillation fluid was 1 mL/min, providing a mixing ratio of scintillation cocktail to mobile phase of 5:1. The limits of detection by Flo-One detector were about 200 ng equivalents/mL for urine and 12 ng equivalents/g for feces.
Plasma samples were analyzed for metabolite profiles by HPLC. Aliquots of plasma were mixed with two volumes of cold methanol containing 0.1% trifluoroacetic acid (TFA), placed on ice for about 2 minutes and then centrifuged. The supernatant fluid was transferred to a clean tube and evaporated at 22° C. under nitrogen in a Zymark TurboVap LV (Caliper Life Sciences, Hopkinton, Mass.) to a volume of about 0.3 mL. The residue was centrifuged, the supernatant volume measured and extraction efficiency determined by analysis of duplicate 20 μL aliquots for radioactivity. A 200 μL aliquot of the supernatant was injected onto the HPLC column and the effluent was collected at 20 second intervals into 96-well Lumaplates (Perkin Elmer). The plates were dried overnight in an oven at 40° C. and analyzed by a TopCount. Plasma extracts were also analyzed by LC/MS.
(§2) A Waters model 2690 HPLC system (Waters Corp., Milford, Mass.) with a built-in autosampler was used for analysis. Separations were accomplished on a Phenomenex Luna C18(2) column (150×2.0 mm, 5 μm) (Phenomenex, Torrance, Calif.). The sample chamber of the autosampler was maintained at 4° C., while the column was at ambient temperature of about 20° C. A variable wavelength UV detector set to monitor 250 nm and a Flo-One β Model A525 radioactivity detector were used for data acquisition. The HPLC mobile phase consisted of 10 mM ammonium acetate, pH 4.5 (A) and acetonitrile (B), and was delivered at 0.2 mL/min. Chromatographic condition A was used for dose analysis, while condition B was used for analysis of urine and plasma, brain and fecal extracts.

[2] = Dog urinary excretion and metabolite profiles after oral capsule of [14C]DCDQ; type: in vivo, beagle dogs
Description: Blood samples were collected from the jugular vein at 2, 4, 8, 24 and 48 hour after dose administration into tubes containing potassium EDTA as the anticoagulant and then placed on ice. Aliquots of 50 μL were removed for combustion and determination of radioactivity content. Plasma was immediately obtained from the remaining blood by centrifugation at 4° C. Urine samples were collected into tubes on dry ice at intervals of 0-8, 8-24 and 24-48 hour post-dose. Fecal samples were collected at intervals of 0-8, 8-24 and 24-48 hour post-dose at room temperature, and were homogenized. The biological specimens were stored at approximately −70° C. until analysis.
as §1
Urine was analyzed for radioactivity concentration and analyzed by HPLC with radioactivity flow detection for metabolite profiles by direct injection to the HPLC column. LC/MS analyses for metabolite identification were also carried out with urine samples.
as §2

[3] = Incubation of [14C]DCDQ with mouse liver microsomes; type: in vitro ADME, CD-1 mice; conditions: NADPH regenerating system, 12 μM DCDQ, 20 min
Description: [^14C]DCDQ was mixed with non-radiolabeled DCDQ (1:3 or 1:5) in the incubations. Microsomal incubations consisted of [^14C]DCDQ, magnesium chloride (10 mM) and liver microsomes incubated in 0.5 mL of 0.1 M potassium phosphate buffer, pH 7.4. [^14C]DCDQ (20 μL) in water was added to the incubation tubes containing buffer, magnesium chloride solution and microsomes. After mixing, the tubes were pre-incubated for 2 minutes in a shaking water bath at 37° C. The reactions were initiated by the addition of UDPGA or the NADPH regenerating system. UDPGA was added to incubations as a 50 μL aliquot of a 20 mM solution in water, to give a final concentration of 2 mM. An NADPH regenerating system (30 μL) was added to incubations to evaluate CYP450-mediated metabolism. The NADPH regenerating system consisted of glucose-6-phosphate (2 mg/mL), glucose-6-phosphate dehydrogenase (0.8 units/mL) and NADP^+ (2 mg/mL). Control incubations were conducted under the same conditions, but without the NADPH generating system, UDPGA or microsomes. All incubations were performed in duplicate. Incubations were stopped by the addition of 0.5 mL ice-cold methanol. Samples were vortex-mixed. Denatured proteins were separated by centrifugation at 4300 rpm and 4° C. for 10 minutes (Model T21 super centrifuge, Sorvall). The protein pellets were extracted with 0.5 mL of methanol. The supernatant was combined for each sample, mixed and evaporated to a volume of about 0.3 mL under a nitrogen stream in a Zymark TurboVap LV evaporator (Caliper Life Science, Hopkinton, Mass.). The concentrated sample was centrifuged and aliquots were radioassayed and analyzed by HPLC. This method recovered an average of 92.1% of the radioactivity from the reaction mixture.
To evaluate species differences in cytochrome P450- and UGT-mediated metabolism, [^14C]DCDQ was incubated for 20 minutes with 0.5 mg/mL liver microsomal proteins from mice, rats, dogs or humans in the presence of the NADPH regenerating system or UDPGA. The assay conditions were the same as described above, and DCDQ concentrations were 12 μM and 56 μM for cytochrome P450- and UGT-mediated metabolism, respectively.
A Waters model 2690 HPLC system (Waters Corp., Milford, Mass.) with a built-in autosampler was used for analysis. Separations were accomplished on a Phenomenex Luna C18(2) column (2×150 mm, 5 μm) (Phenomenex, Torrance, Calif.) coupled with a filter (4×2 mm) cartridge. A variable wavelength UV detector set to monitor 250 nm and Flo-One β Model A525 radioactivity flow detector (Perkin Elmer) with a 250 μL LQTR flow cell were used for data acquisition. The flow rate of Ultima Flow M scintillation fluid was 1 mL/min, providing a mixing ratio of scintillation cocktail to mobile phase of 5:1. […]

Row | SMILES | Chromatographic distribution of radioactivity in dog plasma ([1]; 2 hr, dog 2) [%] | Chromatographic distribution of radioactivity in dog plasma ([1]; 4 hr, dog 1) [%] | Chromatographic distribution of radioactivity in dog plasma ([1]; 4 hr, dog 2) [%] | Chromatographic distribution of radioactivity in dog plasma ([1]; 24 hr, dog 2) [%] | Chromatographic distribution of radioactivity in dog plasma ([1]; 24 hr, dog 3) [%] | Estimated plasma concentration in dogs ([1]; 48 hr, dog 3) | concentration at 2 h ([1]; 2 hr, dog 2) [ng/mL] | concentration at 4 h ([1]; 4 hr, dog 1) [ng/mL] | concentration at 4 h ([1]; 4 hr, dog 2) [ng/mL] | concentration at 24 h ([1]; 24 hr, dog 2) [ng/mL] | concentration at 24 h ([1]; 24 hr, dog 3) [ng/mL] | Chromatographic distribution of radioactivity in dog urine ([2]; 8-24 hr, Mean) [%] | Chromatographic distribution of radioactivity in dog urine ([2]; 8-24 hr, dog 1) [%] | Chromatographic distribution of radioactivity in dog urine ([2]; 8-24 hr, dog 2) [%] | Chromatographic distribution of radioactivity in dog urine ([2]; 8-24 hr, dog 3) [%] | Chromatographic distribution of radioactivity in dog urine ([2]; 24-48 hr, Mean) [%] | Chromatographic distribution of radioactivity in dog urine ([2]; 24-48 hr, dog 1) [%] | Chromatographic distribution of radioactivity in dog urine ([2]; 24-48 hr, dog 2) [%] | Chromatographic distribution of radioactivity in dog urine ([2]; 24-48 hr, dog 3) [%] | Chromatographic distribution of radioactivity in dog urine ([2]; 24-48 hr, dog 4) [%] | further results
1 | OC1CN2C[C@@H]3CCC[C@@H]3c3cccc(c32)CN1 (stereo partly shown) [Metabolite M1, hydroxy DCDQ] | 2.6 | 8.0 | 4.9 | 2.1 | 6.4 | BQL | 32.9 | 40 | 80.9 | 23 | 125 | 6.6 | 8.3 | 4.7 | 6.7 | 5.7 | 4.4 | 7.6 | 7.6 | 3.2 | Chromatographic distribution of radioactivity in dog plasma ([1]; 2 hr, dog 1): 8.4%; Chromatographic distribution of radioactivity in dog plasma ([1]; 8 hr, dog 1): 8.0%; Chromatographic distribution of radioactivity in dog plasma ([1]; 8 hr, dog 2): 4.7%; Chromatographic distribution of radioactivity in dog plasma ([1]; 8 hr, dog 3): 9.7%; Chromatographic distribution of radioactivity in dog plasma ([1]; 24 hr, dog 1): 6.8%; Chromatographic distribution of radioactivity in dog plasma ([1]; 48 hr, dog 1): 12%; Chromatographic distribution of radioactivity in dog plasma ([1]; 48 hr, dog 2): 6.7%; concentration at 2 h ([1]; 2 hr, dog 1): 30.1 ng/mL; concentration at 8 h ([1]; 8 hr, dog 1): 43.3 ng/mL; concentration at 8 h ([1]; 8 hr, dog 2): 61.9 ng/mL; concentration at 8 h ([1]; 8 hr, dog 3): 24.8 ng/mL; concentration at 24 h ([1]; 24 hr, dog 1): 104 ng/mL; concentration at 48 h ([1]; 48 hr, dog 1): 58 ng/mL; concentration at 48 h ([1]; 48 hr, dog 2): 44.7 ng/mL; metabolite detected in microsomal incubation [3]: not detected
2 | OC1[C@@H]2CCC[C@@H]2c2cccc3c2N1CCNC3 (stereo partly shown) [Metabolite M2, hydroxy DCDQ] | 8.0 | 6.6 | 12 | 5.0 | 7.0 | BQL | 99.5 | 33.1 | 192 | 55.3 | 135 | 24 | 21 | 26 | 26 | 22 | 25 | 18 | 22 | 21 | Estimated plasma concentration in dogs ([1]; 2 hr, dog 1): BQL^b; Estimated plasma concentration in dogs ([1]; 8 hr, dog 1): BQL; Estimated plasma concentration in dogs ([1]; 8 hr, dog 2): BQL; Estimated plasma concentration in dogs ([1]; 8 hr, dog 3): BQL; Estimated plasma concentration in dogs ([1]; 24 hr, dog 1): BQL; Estimated plasma concentration in dogs ([1]; 48 hr, dog 1): BQL; Estimated plasma concentration in dogs ([1]; 48 hr, dog 2): BQL; Chromatographic distribution of radioactivity in dog urine ([2]; 0-8 hr, dog no. not printed (dog 1 by footnote a)): 10%; metabolite detected in microsomal incubation [3]: only metabolite detected
